The source of these data is patent publication US20260265316A1, “IMMUNOTHERAPEUTIC METHODS, COMPOUNDS, AND COMPOSITIONS FOR TREATING OR PREVENTING CELIAC DISEASE” (DBV Technologies, priority 2023, published 2026).

Data set [1] deals with circulating gluten-specific CD4+ T cells in whole blood of HLA-DQ8+ CeD patients. Put plainly: Whole blood IL-2 cytokine release assay, HLA-DQ8+ CeD participants. The class given is cell-based, human. Particulars: HLA-DQ8+ donors; whole blood, 24 hours. The source says: (§1) FIGS. 11A-11B are graphs depicting the evaluation of the ability of various molarities of three gliadin polypeptides (Cv6, Av6, and 4K), two peptide mixes containing either the four individual building blocks BB1, BB2a, BB3a and BB4a (BB1-4a) or two Nexvax2 peptides (Nex01/02), and six individual building blocks or peptides (BB1, BB2a, BB3a, BB4a, Nex01, and Nex02) to restimulate gluten-specific T cell collected from HLA-DQ8+ CeD patients using a whole blood IL-2 release assay. The whole blood cytokine release assay was performed in four HLA-DQ8+ participants with biopsy-confirmed celiac disease as described in FIG. 10. Data are expressed in femtogram/mL of plasma (A), or as fold change from the negative control (PBS 1×) (B). Symbols represent individual participants (patient ID); bars represent the median+interquartile range of individual values.
(§2) The overarching objective of this assay was to validate that the polypeptide constructs (Cv6, Av6, and 4K) can be recognized and processed by human APCs, and they can then promote the activation of gluten-specific effector/memory CD4^+ T cells in CeD patients. A Cytokine Release Assay (CRA) was used (previously described in the literature: Anderson et al., Clinical & Experimental Immunology, 2021 June; 204(3): 321-334; and in Hardy et al., Frontiers in Immunology, 2021, Vol. 12, Article 661662, the entire contents of each of which are incorporated by reference herein). This assay quantifies IL-2 produced by circulating gluten-specific CD4^+ T cells present in the blood of CeD patients upon in vitro stimulation with gluten-derived antigens. Due to the extremely high sensitivity of this CRA, no oral exposure to gluten was required prior to blood sampling.
(§3) Informed consent was obtained from all subjects prior to blood collection.
(§4) Unfractionated blood (225 μL per well of a 96-well plate) was then rapidly restimulated for 24 hours with each of three of the polypeptide constructs provided herein (SEQ ID NO:23 wherein X is C [Cv6, i.e., SEQ ID NO:49], SEQ ID NO:23 wherein X is A [Av6, i.e., SEQ ID NO:50], and SEQ ID NO:46 [4K]) and with each of four individual building blocks (SEQ ID NO:15 wherein Z is E [BB1], SEQ ID NO:16 wherein Z is E [BB2a], SEQ ID NO:20 wherein Z is E [BB3a], and SEQ ID NO:18 wherein Z is E [BB4a]). The concentrations of the polypeptide constructs ranged from 0.5 to 10 micromolar, and the concentration for each individual building block was 10 micromolar. […] These two peptides comprise an N-terminal pyroglutamate and a C-terminal amide. Nex01 and Nex02 were the two gliadin peptides used in the Nexvax2 immunotherapeutic vaccine that was intended to restore immune tolerance to gluten in HLA-DQ2.5+ CeD patients. A positive control consisted of blood cells stimulated with phytohemagglutinin (PHA) (10 μg/mL) which activates all T cells regardless of their antigen specificity (i.e., a polyclonal activator). Negative controls consisted of cells treated with buffer only (PBS 1×).
(§5) After incubation for 24 hours at 37° C. and 5% CO2, plasma was separated from whole blood by centrifugation. Plasma was collected from each well and replicates (n=6 replicates per test) pooled. All plasma samples were frozen at −80° C. until analysis. Single plasma aliquots (100 μL) were thawed and analyzed in duplicate using MSD IL-2 S-plex according to the manufacturer's instructions.

How the values of data set [2] were obtained:
Freeze-dried aliquots of the three gliadin polypeptide constructs Cv6, Av6, and 4K, as well as the four building blocks BB1, BB2a, BB3a, and BB4a were reconstituted in pure water, loaded on a PET-Ti backing film and dried in an oven (at ~30° C.). Immediately after drying, dry deposits were reconstituted at five different molarities (approximately 1.8, 0.91, 0.45, 0.091 or 0.045 mM) by pipetting up and down with either pure water (A), PBS 1× (B), or artificial perspiration (C). The concentration in soluble material was measured by HPLC at 215 nm from the solutions recovered from PET-Ti backing films. Data are median+interquartile range of the different molarities tested. Data are expressed as the percentage of soluble material recovered, based on the expected concentration (all values above 100% were set to 100).
Immediately after drying, dry deposits were reconstituted at five different concentrations (20, 10, 5, 1 and 0.5 mg/mL) by pipetting up and down with either pure water (A), PBS 1× (B), or artificial perspiration (C). The concentration in soluble material was measured by HPLC at 215 nm from the solutions recovered from PET-Ti backing films. Data are presented as median+interquartile range of the different molarities tested. Data are expressed as the percentage of soluble material recovered, based on the expected concentration (all values above 100% were set to 100). (D) As an illustration, photographs of the reconstitution of dry deposits with pure water are shown and annotated.
Immediately after drying, deposits were reconstituted by pipetting up and down with each of pure water, PBS 1× at pH 7.0, and artificial perspiration at pH 4.5, each at five different molarities (approximately 1.8, 0.91, 0.45, 0.091, and 0.045 mM). The concentration in soluble material was measured by HPLC at 215 nm.
Immediately after drying, patch deposits were reconstituted by pipetting up and down with each of pure water, PBS 1× at pH 7.0, and artificial perspiration at pH 4.5, at five different concentrations (20, 10, 5, 1, and 0.5 mg/mL). The concentration in soluble material was measured by HPLC at 215 nm.

Data set [3] deals with circulating gluten-specific CD4+ T cells in whole blood of HLA-DQ2+ CeD patients. Put plainly: Whole blood IL-2 cytokine release assay, HLA-DQ2+ CeD participants. The class given is cell-based, human. Particulars: HLA-DQ2+ donors; whole blood, 24 hours.
Text: as §1, with “10A-10B” for “11A-11B”, “HLA-DQ2+” for “HLA-DQ8+”, “six HLA-DQ2+” for “four HLA-DQ8+”, “disease. Whole blood was stimulated with the three gliadin polypeptide constructs Cv6, Av6, and 4K at 10, 2.5, and 0.5 μM final molarities,” for “disease”, “indicated. Alternatively, whole blood was stimulated with a mix of peptides containing either the four building blocks BB1, BB2a, BB3a, and BB4a (BB1-4a) or Nex01 and Nex 02 (Nex01/02) at 10, 2.5, and 0.5 μM final molarities. Building blocks (BB1, BB2a, BB3a, and BB4a), Nex01, and Nex02 were also tested as individual peptides, at a single concentration of 10 μM. After 24 hours of incubation, the concentration of IL-2 was quantified from plasma using an MSD IL-2 S-plex ELISA.” for “described in FIG. 10.”, “represent” for “represent the”
as §2, §3, §4, §5

Regarding “Ac-QLQPFPQPELPYPQPELPYPQPELPYPQPQP-NH2 [BB1]”, the “IL-2 response (in words)” value in data set [1] is listed as “no or low responses”; in data set [3] it was “potent IL-2 responses”. In addition, the “median percentage of soluble material recovered from the patch backing film” value in data set [2] is given as 93-100%.
As for H-PQQPFPQPEQPFPWQPQ-NH2 [BB3a], the figures for the “IL-2 response (in words)” value in data set [1] and in data set [3] were “no or low responses” and “potent IL-2 responses”, respectively. Moreover, in data set [2], the “median percentage of soluble material recovered from the patch backing film” value was 93-100%.
